# Test results from the kinase profiling compilation of Christmann-Franck et al. (2016).
# pIC50: −log10 of the molar value.
# Key:
# FRK (human) = FRK (human) (UniProt P42685); experiment: KINOMEscan competition binding; conditions: compound 10.0 µM
# ROS1 (human) = ROS1 (human) (UniProt P08922); experiment: KINOMEscan competition binding; conditions: compound 10.0 µM
# SGK110 (human) = SGK110 (human) (UniProt P0C264); experiment: KINOMEscan competition binding; conditions: compound 10.0 µM
# NUAK1 (human) = NUAK1 (human) (UniProt O60285); experiment: KINOMEscan competition binding; conditions: compound 10.0 µM
# ULK1 (human) = ULK1 (human) (UniProt O75385); experiment: KINOMEscan competition binding; conditions: compound 10.0 µM
# PHKG2 (human) = PHKG2 (human) (UniProt P15735); experiment: KINOMEscan competition binding; conditions: compound 10.0 µM
# PTK6 (human) = PTK6 (human) (UniProt Q13882); experiment: KINOMEscan competition binding; conditions: compound 10.0 µM
# RPS6KA1 KD2 (human) = RPS6KA1 KD2 (human) (UniProt Q15418); experiment: KINOMEscan competition binding; conditions: compound 10.0 µM
# NUAK2 (human) = NUAK2 (human) (UniProt Q9H093); experiment: KINOMEscan competition binding; conditions: compound 10.0 µM
# PRKD3 (human) = PRKD3 (human) (UniProt O94806); experiment: KINOMEscan competition binding; conditions: compound 10.0 µM
# TNK2 (human) = TNK2 (human) (UniProt Q07912); experiment: KINOMEscan competition binding; conditions: compound 10.0 µM
# CAMK2G (human) = CAMK2G (human) (UniProt Q13555); experiment: KINOMEscan competition binding; conditions: compound 10.0 µM
# ULK2 (human) = ULK2 (human) (UniProt Q8IYT8); experiment: KINOMEscan competition binding; conditions: compound 10.0 µM
# STK33 (human) = STK33 (human) (UniProt Q9BYT3); experiment: KINOMEscan competition binding; conditions: compound 10.0 µM
# CAMK2A (human) = CAMK2A (human) (UniProt Q9UQM7); experiment: KINOMEscan competition binding; conditions: compound 10.0 µM
# DCLK2 (human) = DCLK2 (human) (UniProt Q8N568); experiment: KINOMEscan competition binding; conditions: compound 10.0 µM
# TAOK3 (human) = TAOK3 (human) (UniProt Q9H2K8); experiment: KINOMEscan competition binding; conditions: compound 10.0 µM
# GAK (human) = GAK (human) (UniProt O14976); experiment: KINOMEscan competition binding; conditions: compound 10.0 µM
# TAOK1 (human) = TAOK1 (human) (UniProt Q7L7X3); experiment: KINOMEscan competition binding; conditions: compound 10.0 µM
# [1] = system: ABL1 (human), P00519 [F317I]; experiment: KINOMEscan competition binding; conditions: compound 10.0 µM
# FER (human) = FER (human) (UniProt P16591); experiment: KINOMEscan competition binding; conditions: compound 10.0 µM
# PRKD2 (human) = PRKD2 (human) (UniProt Q9BZL6); experiment: KINOMEscan competition binding; conditions: compound 10.0 µM
# PLK1 (human) = PLK1 (human) (UniProt P53350); experiment: KINOMEscan competition binding; conditions: compound 10.0 µM
# CAMKK2 (human) = CAMKK2 (human) (UniProt Q96RR4); experiment: KINOMEscan competition binding; conditions: compound 10.0 µM
# CHEK2 (human) = CHEK2 (human) (UniProt O96017); experiment: KINOMEscan competition binding; conditions: compound 10.0 µM
# PTK2 (human) = PTK2 (human) (UniProt Q05397); experiment: KINOMEscan competition binding; conditions: compound 10.0 µM
# FGFR4 (human) = FGFR4 (human) (UniProt P22455); experiment: KINOMEscan competition binding; conditions: compound 10.0 µM
# TNK1 (human) = TNK1 (human) (UniProt Q13470); experiment: KINOMEscan competition binding; conditions: compound 10.0 µM
# PIK3CD (human) = PIK3CD (human) (UniProt O00329); experiment: KINOMEscan competition binding; conditions: compound 10.0 µM
# TTK (human) = TTK (human) (UniProt P33981); experiment: KINOMEscan competition binding; conditions: compound 10.0 µM
# PRKD1 (human) = PRKD1 (human) (UniProt Q15139); experiment: KINOMEscan competition binding; conditions: compound 10.0 µM
# MAPK7 (human) = MAPK7 (human) (UniProt Q13164); experiment: KINOMEscan competition binding; conditions: compound 10.0 µM
# CSF1R (human) = CSF1R (human) (UniProt P07333); experiment: KINOMEscan competition binding; conditions: compound 10.0 µM
# ALK (human) = ALK (human) (UniProt Q9UM73); experiment: KINOMEscan competition binding; conditions: compound 10.0 µM
# MKNK2 (human) = MKNK2 (human) (UniProt Q9HBH9); experiment: KINOMEscan competition binding; conditions: compound 10.0 µM
# PIK3CG (human) = PIK3CG (human) (UniProt P48736); experiment: KINOMEscan competition binding; conditions: compound 10.0 µM
# CAMK2D (human) = CAMK2D (human) (UniProt Q13557); experiment: KINOMEscan competition binding; conditions: compound 10.0 µM
# DCLK1 (human) = DCLK1 (human) (UniProt O15075); experiment: KINOMEscan competition binding; conditions: compound 10.0 µM
# MYLK (human) = MYLK (human) (UniProt Q15746); experiment: KINOMEscan competition binding; conditions: compound 10.0 µM
# PLK4 (human) = PLK4 (human) (UniProt O00444); experiment: KINOMEscan competition binding; conditions: compound 10.0 µM
# RPS6KA6 KD2 (human) = RPS6KA6 KD2 (human) (UniProt Q9UK32); experiment: KINOMEscan competition binding; conditions: compound 10.0 µM
# DCLK3 (human) = DCLK3 (human) (UniProt Q9C098); experiment: KINOMEscan competition binding; conditions: compound 10.0 µM
# [2] = system: ABL1 (human), P00519 [F317L]; experiment: KINOMEscan competition binding; conditions: compound 10.0 µM
# RPS6KA2 KD2 (human) = RPS6KA2 KD2 (human) (UniProt Q15349); experiment: KINOMEscan competition binding; conditions: compound 10.0 µM
# PIM2 (human) [3] = biological target: PIM2 (human) (UniProt Q9P1W9); experiment: SelectScreen, TR FRET
# PIM1 (human) [4] = biological target: PIM1 (human) (UniProt P11309); experiment: SelectScreen, TR FRET
# CLK4 (human) = CLK4 (human) (UniProt Q9HAZ1); experiment: KINOMEscan competition binding; conditions: compound 10.0 µM
# GSK3B (human) = GSK3B (human) (UniProt P49841); experiment: KINOMEscan competition binding; conditions: compound 10.0 µM
# DAPK2 (human) = DAPK2 (human) (UniProt Q9UIK4); experiment: KINOMEscan competition binding; conditions: compound 10.0 µM
# DAPK3 (human) = DAPK3 (human) (UniProt O43293); experiment: KINOMEscan competition binding; conditions: compound 10.0 µM
# DAPK1 (human) = DAPK1 (human) (UniProt P53355); experiment: KINOMEscan competition binding; conditions: compound 10.0 µM
# HIPK1 (human) = HIPK1 (human) (UniProt Q86Z02); experiment: KINOMEscan competition binding; conditions: compound 10.0 µM
# STK17B (human) = STK17B (human) (UniProt O94768); experiment: KINOMEscan competition binding; conditions: compound 10.0 µM
# PIM2 (human) [5] = biological target: PIM2 (human) (UniProt Q9P1W9); experiment: KINOMEscan competition binding; conditions: compound 10.0 µM
# CHUK (human) = CHUK (human) (UniProt O15111); experiment: KINOMEscan competition binding; conditions: compound 10.0 µM
# IKBKB (human) = IKBKB (human) (UniProt O14920); experiment: KINOMEscan competition binding; conditions: compound 10.0 µM
# PIM1 (human) [6] = biological target: PIM1 (human) (UniProt P11309); experiment: KINOMEscan competition binding; conditions: compound 10.0 µM
# MAP2K3 (human) = MAP2K3 (human) (UniProt P46734); experiment: KINOMEscan competition binding; conditions: compound 10.0 µM
# MAPK15 (human) = MAPK15 (human) (UniProt Q8TD08); experiment: KINOMEscan competition binding; conditions: compound 10.0 µM
# PIM3 (human) = PIM3 (human) (UniProt Q86V86); experiment: KINOMEscan competition binding; conditions: compound 10.0 µM
# CLK2 (human) = CLK2 (human) (UniProt P49760); experiment: KINOMEscan competition binding; conditions: compound 10.0 µM
# CDK7 (human) = CDK7 (human) (UniProt P50613); experiment: KINOMEscan competition binding; conditions: compound 10.0 µM
# CLK1 (human) = CLK1 (human) (UniProt P49759); experiment: KINOMEscan competition binding; conditions: compound 10.0 µM
# TGFBR2 (human) = TGFBR2 (human) (UniProt P37173); experiment: KINOMEscan competition binding; conditions: compound 10.0 µM
# CDK16 (human) = CDK16 (human) (UniProt Q00536); experiment: KINOMEscan competition binding; conditions: compound 10.0 µM
# STK17A (human) = STK17A (human) (UniProt Q9UEE5); experiment: KINOMEscan competition binding; conditions: compound 10.0 µM
# DYRK1B (human) = DYRK1B (human) (UniProt Q9Y463); experiment: KINOMEscan competition binding; conditions: compound 10.0 µM
# [7] = biological target: TYK2 JH2 pseudokinase (human) (UniProt P29597); experiment: KINOMEscan competition binding; conditions: compound 10.0 µM
# GSK3A (human) = GSK3A (human) (UniProt P49840); experiment: KINOMEscan competition binding; conditions: compound 10.0 µM
# TAOK3 (human), sequence (Q9H2K8 whole entry, looked up): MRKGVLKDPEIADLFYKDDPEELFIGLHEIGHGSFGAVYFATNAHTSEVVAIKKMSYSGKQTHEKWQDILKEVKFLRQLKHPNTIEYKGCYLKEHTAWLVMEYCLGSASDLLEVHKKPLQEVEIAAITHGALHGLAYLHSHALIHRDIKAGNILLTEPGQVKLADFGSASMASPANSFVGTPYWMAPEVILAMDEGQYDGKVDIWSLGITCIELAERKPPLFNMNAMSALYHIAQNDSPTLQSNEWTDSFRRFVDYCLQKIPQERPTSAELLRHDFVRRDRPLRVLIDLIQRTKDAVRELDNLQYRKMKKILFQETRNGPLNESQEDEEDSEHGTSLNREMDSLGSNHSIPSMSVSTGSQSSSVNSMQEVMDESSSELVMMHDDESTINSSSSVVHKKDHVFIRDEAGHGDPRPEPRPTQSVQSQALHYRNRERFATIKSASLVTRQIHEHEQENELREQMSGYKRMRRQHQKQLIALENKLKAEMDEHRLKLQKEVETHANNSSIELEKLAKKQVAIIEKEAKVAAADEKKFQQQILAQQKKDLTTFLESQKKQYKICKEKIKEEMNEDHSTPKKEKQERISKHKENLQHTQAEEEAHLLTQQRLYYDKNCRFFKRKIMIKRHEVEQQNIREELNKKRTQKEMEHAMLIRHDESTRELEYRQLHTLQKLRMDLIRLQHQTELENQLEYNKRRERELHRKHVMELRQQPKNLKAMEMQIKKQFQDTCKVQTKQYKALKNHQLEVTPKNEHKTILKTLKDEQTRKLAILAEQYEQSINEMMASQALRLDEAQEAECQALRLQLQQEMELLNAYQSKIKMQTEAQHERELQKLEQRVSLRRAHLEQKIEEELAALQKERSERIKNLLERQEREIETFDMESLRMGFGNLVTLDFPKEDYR
# PLK4 (human), sequence (O00444 whole entry, looked up): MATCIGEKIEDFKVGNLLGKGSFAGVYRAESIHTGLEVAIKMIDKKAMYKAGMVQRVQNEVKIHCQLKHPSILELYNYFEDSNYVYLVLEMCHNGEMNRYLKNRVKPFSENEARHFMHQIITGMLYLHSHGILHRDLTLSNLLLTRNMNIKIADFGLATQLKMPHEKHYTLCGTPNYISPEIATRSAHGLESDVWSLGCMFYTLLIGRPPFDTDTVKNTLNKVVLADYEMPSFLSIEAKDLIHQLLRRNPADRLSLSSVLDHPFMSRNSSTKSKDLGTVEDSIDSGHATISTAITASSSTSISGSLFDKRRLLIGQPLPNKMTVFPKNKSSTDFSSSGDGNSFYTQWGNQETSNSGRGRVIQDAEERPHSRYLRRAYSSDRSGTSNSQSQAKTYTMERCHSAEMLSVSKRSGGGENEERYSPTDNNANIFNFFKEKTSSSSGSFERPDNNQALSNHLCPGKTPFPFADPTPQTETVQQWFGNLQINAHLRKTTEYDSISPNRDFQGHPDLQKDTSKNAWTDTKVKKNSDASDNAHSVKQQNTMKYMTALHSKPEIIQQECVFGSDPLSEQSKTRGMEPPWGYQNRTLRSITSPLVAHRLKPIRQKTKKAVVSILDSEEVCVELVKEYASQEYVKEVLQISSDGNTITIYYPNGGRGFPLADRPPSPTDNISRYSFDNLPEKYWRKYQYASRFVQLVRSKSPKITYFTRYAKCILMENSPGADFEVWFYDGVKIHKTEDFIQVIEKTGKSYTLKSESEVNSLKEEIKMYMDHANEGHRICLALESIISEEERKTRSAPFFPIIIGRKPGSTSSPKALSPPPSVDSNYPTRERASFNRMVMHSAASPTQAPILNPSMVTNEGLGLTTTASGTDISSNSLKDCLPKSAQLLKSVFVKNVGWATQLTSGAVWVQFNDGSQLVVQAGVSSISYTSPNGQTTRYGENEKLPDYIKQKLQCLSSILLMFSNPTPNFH
# PIM1 (human), sequence (P11309 whole entry, looked up): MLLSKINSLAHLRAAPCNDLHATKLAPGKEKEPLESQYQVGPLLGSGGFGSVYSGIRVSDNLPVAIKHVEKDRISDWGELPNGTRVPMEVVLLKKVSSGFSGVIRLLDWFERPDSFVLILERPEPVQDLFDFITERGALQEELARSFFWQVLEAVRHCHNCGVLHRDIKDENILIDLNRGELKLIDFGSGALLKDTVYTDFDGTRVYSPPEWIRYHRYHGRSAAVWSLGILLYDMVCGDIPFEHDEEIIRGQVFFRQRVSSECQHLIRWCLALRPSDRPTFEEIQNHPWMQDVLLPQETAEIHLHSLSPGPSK
# PIM2 (human), sequence (Q9P1W9 whole entry, looked up): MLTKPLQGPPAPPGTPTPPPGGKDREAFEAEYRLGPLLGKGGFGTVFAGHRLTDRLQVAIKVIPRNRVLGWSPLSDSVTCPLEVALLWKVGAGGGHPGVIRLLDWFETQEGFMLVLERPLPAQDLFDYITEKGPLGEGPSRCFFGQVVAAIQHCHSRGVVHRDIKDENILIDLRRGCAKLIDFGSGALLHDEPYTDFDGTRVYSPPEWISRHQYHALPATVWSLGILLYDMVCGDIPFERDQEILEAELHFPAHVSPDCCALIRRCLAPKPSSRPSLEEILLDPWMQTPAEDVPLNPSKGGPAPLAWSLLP
# TAOK1 (human), sequence (Q7L7X3 whole entry, looked up): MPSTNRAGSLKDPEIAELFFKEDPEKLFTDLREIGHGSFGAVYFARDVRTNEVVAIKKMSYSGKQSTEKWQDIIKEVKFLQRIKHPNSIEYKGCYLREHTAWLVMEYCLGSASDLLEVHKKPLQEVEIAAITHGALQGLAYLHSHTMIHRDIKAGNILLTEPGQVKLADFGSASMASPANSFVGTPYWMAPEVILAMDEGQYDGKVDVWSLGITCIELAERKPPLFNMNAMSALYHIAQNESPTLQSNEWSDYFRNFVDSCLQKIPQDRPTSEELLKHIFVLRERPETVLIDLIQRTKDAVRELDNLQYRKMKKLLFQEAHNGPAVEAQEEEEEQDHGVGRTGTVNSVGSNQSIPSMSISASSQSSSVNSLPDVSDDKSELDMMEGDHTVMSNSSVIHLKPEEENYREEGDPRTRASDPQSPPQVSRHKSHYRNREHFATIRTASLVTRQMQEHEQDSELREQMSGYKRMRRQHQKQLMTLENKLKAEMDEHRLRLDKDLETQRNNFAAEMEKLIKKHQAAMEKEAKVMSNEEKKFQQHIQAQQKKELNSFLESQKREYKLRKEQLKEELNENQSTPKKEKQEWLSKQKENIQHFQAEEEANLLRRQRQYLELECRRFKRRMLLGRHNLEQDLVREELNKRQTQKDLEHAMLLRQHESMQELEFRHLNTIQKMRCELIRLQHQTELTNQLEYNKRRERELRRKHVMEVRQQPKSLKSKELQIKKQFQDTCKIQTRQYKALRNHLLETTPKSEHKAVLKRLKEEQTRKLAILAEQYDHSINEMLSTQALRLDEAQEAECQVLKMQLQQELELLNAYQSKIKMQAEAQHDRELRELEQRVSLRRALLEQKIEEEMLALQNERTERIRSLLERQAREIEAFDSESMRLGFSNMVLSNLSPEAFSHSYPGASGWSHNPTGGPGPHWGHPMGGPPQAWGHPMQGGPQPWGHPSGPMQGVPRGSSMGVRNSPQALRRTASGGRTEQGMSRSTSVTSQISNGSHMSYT
# FGFR4 (human), sequence (P22455 whole entry, looked up): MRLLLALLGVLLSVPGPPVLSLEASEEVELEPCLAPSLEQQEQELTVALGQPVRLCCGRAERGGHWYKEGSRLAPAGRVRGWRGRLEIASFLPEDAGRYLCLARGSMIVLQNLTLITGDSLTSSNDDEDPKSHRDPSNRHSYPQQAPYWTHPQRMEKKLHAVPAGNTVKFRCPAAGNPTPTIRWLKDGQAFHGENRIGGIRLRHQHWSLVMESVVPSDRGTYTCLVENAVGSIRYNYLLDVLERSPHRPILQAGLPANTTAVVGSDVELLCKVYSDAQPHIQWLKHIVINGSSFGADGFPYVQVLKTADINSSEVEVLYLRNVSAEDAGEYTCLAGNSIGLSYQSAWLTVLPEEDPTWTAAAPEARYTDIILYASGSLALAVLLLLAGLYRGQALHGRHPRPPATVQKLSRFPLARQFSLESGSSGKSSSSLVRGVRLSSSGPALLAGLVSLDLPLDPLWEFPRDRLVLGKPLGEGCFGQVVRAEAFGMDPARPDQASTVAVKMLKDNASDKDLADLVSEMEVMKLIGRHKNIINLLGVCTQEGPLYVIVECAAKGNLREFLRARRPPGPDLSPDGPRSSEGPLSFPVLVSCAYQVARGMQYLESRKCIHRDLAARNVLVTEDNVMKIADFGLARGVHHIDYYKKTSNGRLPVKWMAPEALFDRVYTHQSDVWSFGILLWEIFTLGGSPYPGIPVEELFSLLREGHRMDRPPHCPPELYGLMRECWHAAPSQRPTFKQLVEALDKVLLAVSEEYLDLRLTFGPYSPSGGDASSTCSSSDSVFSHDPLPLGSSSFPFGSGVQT
# CDK7 (human), sequence (P50613 whole entry, looked up): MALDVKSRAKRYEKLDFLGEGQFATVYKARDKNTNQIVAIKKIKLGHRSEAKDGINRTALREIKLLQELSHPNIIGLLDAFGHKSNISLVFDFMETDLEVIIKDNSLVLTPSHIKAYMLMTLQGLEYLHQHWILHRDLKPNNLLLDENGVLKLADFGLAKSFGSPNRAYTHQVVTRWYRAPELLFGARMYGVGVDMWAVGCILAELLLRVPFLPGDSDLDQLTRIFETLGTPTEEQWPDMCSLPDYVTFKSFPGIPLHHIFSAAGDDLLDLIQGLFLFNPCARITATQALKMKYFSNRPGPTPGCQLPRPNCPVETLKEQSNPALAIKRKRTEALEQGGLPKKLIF
# PHKG2 (human), sequence (P15735 whole entry, looked up): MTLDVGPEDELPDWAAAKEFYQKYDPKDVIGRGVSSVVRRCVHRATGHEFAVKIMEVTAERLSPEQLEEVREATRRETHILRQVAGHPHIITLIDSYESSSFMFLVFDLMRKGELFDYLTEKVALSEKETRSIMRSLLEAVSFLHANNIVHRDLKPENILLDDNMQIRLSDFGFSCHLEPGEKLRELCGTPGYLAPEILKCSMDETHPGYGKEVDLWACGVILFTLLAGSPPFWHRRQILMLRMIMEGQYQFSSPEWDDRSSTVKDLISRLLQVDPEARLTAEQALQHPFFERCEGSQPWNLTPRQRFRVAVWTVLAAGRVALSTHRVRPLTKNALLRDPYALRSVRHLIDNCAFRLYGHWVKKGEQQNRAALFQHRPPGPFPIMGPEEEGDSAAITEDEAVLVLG
smiles,measurement,setting,value
COc1cc(N2CCN(C)CC2)ccc1Nc1ncc2c(n1)N(C)c1ccccc1C(=O)N2C,"kinase still bound, per cent of control",FRK (human),2.6%
same,"kinase still bound, per cent of control",ROS1 (human),7.6%
same,"kinase still bound, per cent of control",SGK110 (human),30%
same,"kinase still bound, per cent of control",NUAK1 (human),7.6%
same,"kinase still bound, per cent of control",ULK1 (human),2.9%
same,"kinase still bound, per cent of control",PHKG2 (human),29%
same,"kinase still bound, per cent of control",PTK6 (human),7.6%
same,"kinase still bound, per cent of control",RPS6KA1 KD2 (human),18%
same,"kinase still bound, per cent of control",NUAK2 (human),14%
same,"kinase still bound, per cent of control",PRKD3 (human),5.4%
same,"kinase still bound, per cent of control",TNK2 (human),3.2%
same,"kinase still bound, per cent of control",CAMK2G (human),31%
same,"kinase still bound, per cent of control",ULK2 (human),0.5%
same,"kinase still bound, per cent of control",STK33 (human),8.8%
same,"kinase still bound, per cent of control",CAMK2A (human),32%
same,"kinase still bound, per cent of control",DCLK2 (human),0.45%
same,"kinase still bound, per cent of control",TAOK3 (human),2%
same,"kinase still bound, per cent of control",GAK (human),9.8%
same,"kinase still bound, per cent of control",TAOK1 (human),4.8%
same,"kinase still bound, per cent of control",[1],5%
same,"kinase still bound, per cent of control",FER (human),32%
same,"kinase still bound, per cent of control",PRKD2 (human),0.55%
same,"kinase still bound, per cent of control",PLK1 (human),9.8%
same,"kinase still bound, per cent of control",CAMKK2 (human),15%
same,"kinase still bound, per cent of control",CHEK2 (human),30%
same,"kinase still bound, per cent of control",PTK2 (human),16%
same,"kinase still bound, per cent of control",FGFR4 (human),5.6%
same,"kinase still bound, per cent of control",TNK1 (human),0.4%
same,"kinase still bound, per cent of control",PIK3CD (human),33%
same,"kinase still bound, per cent of control",TTK (human),26%
same,"kinase still bound, per cent of control",PRKD1 (human),3.8%
same,"kinase still bound, per cent of control",MAPK7 (human),0%
same,"kinase still bound, per cent of control",CSF1R (human),16%
same,"kinase still bound, per cent of control",ALK (human),16%
same,"kinase still bound, per cent of control",MKNK2 (human),0%
same,"kinase still bound, per cent of control",PIK3CG (human),31%
same,"kinase still bound, per cent of control",CAMK2D (human),23%
same,"kinase still bound, per cent of control",DCLK1 (human),0.65%
same,"kinase still bound, per cent of control",MYLK (human),13%
same,"kinase still bound, per cent of control",PLK4 (human),6.8%
same,"kinase still bound, per cent of control",RPS6KA6 KD2 (human),4.9%
same,"kinase still bound, per cent of control",DCLK3 (human),16%
same,"kinase still bound, per cent of control",[2],17%
same,"kinase still bound, per cent of control",RPS6KA2 KD2 (human),15%
N=C1NC(=O)/C(=C/c2ccc(-c3ccc(F)cc3)o2)S1,pIC50,PIM2 (human) [3],6.23
same,pIC50,PIM1 (human) [4],5.76
same,"kinase still bound, per cent of control",CLK4 (human),28%
same,"kinase still bound, per cent of control",GSK3B (human),30%
same,"kinase still bound, per cent of control",DAPK2 (human),5.1%
same,"kinase still bound, per cent of control",DAPK3 (human),14%
same,"kinase still bound, per cent of control",DAPK1 (human),15%
same,"kinase still bound, per cent of control",HIPK1 (human),0.2%
same,"kinase still bound, per cent of control",STK17B (human),2.2%
same,"kinase still bound, per cent of control",TAOK3 (human),6.6%
same,"kinase still bound, per cent of control",PIM2 (human) [5],1.2%
same,"kinase still bound, per cent of control",TAOK1 (human),0.3%
same,"kinase still bound, per cent of control",CHUK (human),27%
same,"kinase still bound, per cent of control",IKBKB (human),29%
same,"kinase still bound, per cent of control",PIM1 (human) [6],3.4%
same,"kinase still bound, per cent of control",MAP2K3 (human),5.8%
same,"kinase still bound, per cent of control",MAPK15 (human),0.95%
same,"kinase still bound, per cent of control",PIM3 (human),3.7%
same,"kinase still bound, per cent of control",CLK2 (human),16%
same,"kinase still bound, per cent of control",CDK7 (human),15%
same,"kinase still bound, per cent of control",CLK1 (human),26%
same,"kinase still bound, per cent of control",TGFBR2 (human),7.8%
same,"kinase still bound, per cent of control",CDK16 (human),9.4%
same,"kinase still bound, per cent of control",PLK4 (human),21%
same,"kinase still bound, per cent of control",STK17A (human),0.45%
same,"kinase still bound, per cent of control",DYRK1B (human),33%
same,"kinase still bound, per cent of control",[7],34%
same,"kinase still bound, per cent of control",GSK3A (human),4.3%
